Data taken from PubChem BioAssay AID1963825 (Molecular Pharmacology Branch, DTP, NCI, 2024).

Experiment: Anticancer human tumor 997537-175-T-J1-PDC patient-derived colon adenocarcinoma cell line growth inhibition [POLQ]
Settings: 997537-175-T-J1-PDC complex spheroid viability, combination with POLQ inhibitors; for IC50: curve of first compound; for viability, T/C: stronger effect = lower value
How it was run: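 Growth inhibition in 3D: complex spheroids (tumor PDC, HUVEC, MSC) treated with POLQ inhibitor combinations; where Cmax unknown, highest tested concentration 10 microM, except SN-38 at 1 microM.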

[1] = second compound 0.0316 µM, first compound 0.0316 µM
[2] = second compound 0.0316 µM, first compound 0.1 µM
[3] = second compound 0.0316 µM, first compound 0.316 µM
[4] = second compound 0.0316 µM, first compound 1 µM
[5] = second compound 0.0316 µM, first compound 3.16 µM
[6] = second compound 0.0316 µM, first compound 10 µM
[7] = second compound 0.1 µM, first compound 0.0316 µM
[8] = second compound 0.1 µM, first compound 0.1 µM
[9] = second compound 0.1 µM, first compound 0.316 µM
[10] = second compound 0.1 µM, first compound 1 µM
[11] = second compound 0.1 µM, first compound 3.16 µM
[12] = second compound 0.1 µM, first compound 10 µM
[13] = second compound 0.316 µM, first compound 0.0316 µM
[14] = second compound 0.316 µM, first compound 0.1 µM
[15] = second compound 0.316 µM, first compound 0.316 µM
[16] = second compound 0.316 µM, first compound 1 µM
[17] = second compound 0.316 µM, first compound 3.16 µM
[18] = second compound 0.316 µM, first compound 10 µM
[19] = second compound 1 µM, first compound 0.0316 µM
[20] = second compound 1 µM, first compound 0.1 µM
[21] = second compound 1 µM, first compound 0.316 µM
[22] = second compound 1 µM, first compound 1 µM
[23] = second compound 1 µM, first compound 3.16 µM
[24] = second compound 1 µM, first compound 10 µM
[25] = second compound 3.16 µM, first compound 0.0316 µM
[26] = second compound 3.16 µM, first compound 0.1 µM
[27] = second compound 3.16 µM, first compound 0.316 µM
[28] = second compound 3.16 µM, first compound 1 µM
[29] = second compound 3.16 µM, first compound 3.16 µM
[30] = second compound 3.16 µM, first compound 10 µM
[31] = second compound 10 µM, first compound 0.0316 µM
[32] = second compound 10 µM, first compound 0.1 µM
[33] = second compound 10 µM, first compound 0.316 µM
[34] = second compound 10 µM, first compound 1 µM
[35] = second compound 10 µM, first compound 3.16 µM
[36] = second compound 10 µM, first compound 10 µM
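Further: luminescence signal used as a surrogate for viable cells; spheroids exposed to drugs for seven days before readout.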

## O=c1[nH]cc(F)c(=O)[nH]1 + Nc1ccc(C#CCN(C(=O)Cc2ncc(C(F)(F)F)cc2C(F)(F)F)c2ccc(F)cc2)nn1
Second compound 0.0316 µM
  IC50: > 10 µM
Second compound 0.1 µM
  IC50: > 10 µM
Second compound 0.316 µM
  IC50: > 10 µM
Second compound 1 µM
  IC50: > 10 µM
Second compound 3.16 µM
  IC50: > 10 µM
Second compound 10 µM
  IC50: > 10 µM
[1]
  viability, T/C: 98.7%
[2]
  viability, T/C: 105%
[3]
  viability, T/C: 109%
[4]
  viability, T/C: 84.9%
[5]
  viability, T/C: 95.7%
[6]
  viability, T/C: 79%
[7]
  viability, T/C: 106%
[8]
  viability, T/C: 99.8%
[9]
  viability, T/C: 95.9%
[10]
  viability, T/C: 103%
[11]
  viability, T/C: 82.6%
[12]
  viability, T/C: 88.1%
[13]
  viability, T/C: 95%
[14]
  viability, T/C: 102%
[15]
  viability, T/C: 103%
[16]
  viability, T/C: 105%
[17]
  viability, T/C: 85%
[18]
  viability, T/C: 94.1%
[19]
  viability, T/C: 94.2%
[20]
  viability, T/C: 93.9%
[21]
  viability, T/C: 83.7%
[22]
  viability, T/C: 85.8%
[23]
  viability, T/C: 73.5%
[24]
  viability, T/C: 79.9%
[25]
  viability, T/C: 101%
[26]
  viability, T/C: 110%
[27]
  viability, T/C: 118%
[28]
  viability, T/C: 86.2%
[29]
  viability, T/C: 88.6%
[30]
  viability, T/C: 72.5%
[31]
  viability, T/C: 105%
[32]
  viability, T/C: 94.5%
[33]
  viability, T/C: 103%
[34]
  viability, T/C: 91.2%
[35]
  viability, T/C: 84.1%
[36]
  viability, T/C: 81%

## COc1cc(C2c3cc4c(cc3C(OC3OC5COC(C)OC5C(O)C3O)C3COC(=O)C23)OCO4)cc(OC)c1O (stereo unspecified) + Nc1ccc(C#CCN(C(=O)Cc2ncc(C(F)(F)F)cc2C(F)(F)F)c2ccc(F)cc2)nn1
Second compound 0.0316 µM
  IC50: > 10 µM
Second compound 0.1 µM
  IC50: > 10 µM
Second compound 0.316 µM
  IC50: > 10 µM
Second compound 1 µM
  IC50: > 10 µM
Second compound 3.16 µM
  IC50: > 10 µM
Second compound 10 µM
  IC50: 7.77 µM
[1]
  viability, T/C: 101%
[2]
  viability, T/C: 105%
[3]
  viability, T/C: 93.2%
[4]
  viability, T/C: 94.2%
[5]
  viability, T/C: 68%
[6]
  viability, T/C: 67.7%
[7]
  viability, T/C: 112%
[8]
  viability, T/C: 96.4%
[9]
  viability, T/C: 99.5%
[10]
  viability, T/C: 86%
[11]
  viability, T/C: 65.7%
[12]
  viability, T/C: 66.2%
[13]
  viability, T/C: 92.4%
[14]
  viability, T/C: 99.5%
[15]
  viability, T/C: 86.5%
[16]
  viability, T/C: 83.4%
[17]
  viability, T/C: 75.4%
[18]
  viability, T/C: 69.7%
[19]
  viability, T/C: 92.4%
[20]
  viability, T/C: 96.9%
[21]
  viability, T/C: 97.1%
[22]
  viability, T/C: 81%
[23]
  viability, T/C: 61%
[24]
  viability, T/C: 67.7%
[25]
  viability, T/C: 91.1%
[26]
  viability, T/C: 93.7%
[27]
  viability, T/C: 94.6%
[28]
  viability, T/C: 82.4%
[29]
  viability, T/C: 57.8%
[30]
  viability, T/C: 54.3%
[31]
  viability, T/C: 96%
[32]
  viability, T/C: 104%
[33]
  viability, T/C: 99.5%
[34]
  viability, T/C: 91%
[35]
  viability, T/C: 61.4%
[36]
  viability, T/C: 46.8%

## Nc1ccn(C2OC(CO)C(O)C2(F)F)c(=O)n1 (stereo unspecified) + Nc1ccc(C#CCN(C(=O)Cc2ncc(C(F)(F)F)cc2C(F)(F)F)c2ccc(F)cc2)nn1
Second compound 0.0316 µM
  IC50: > 10 µM
Second compound 0.1 µM
  IC50: > 10 µM
Second compound 0.316 µM
  IC50: > 10 µM
Second compound 1 µM
  IC50: > 10 µM
Second compound 3.16 µM
  IC50: > 10 µM
Second compound 10 µM
  IC50: > 10 µM
[1]
  viability, T/C: 92.5%
[2]
  viability, T/C: 100%
[3]
  viability, T/C: 87.8%
[4]
  viability, T/C: 89.5%
[5]
  viability, T/C: 80.7%
[6]
  viability, T/C: 72.5%
[7]
  viability, T/C: 109%
[8]
  viability, T/C: 108%
[9]
  viability, T/C: 101%
[10]
  viability, T/C: 68.2%
[11]
  viability, T/C: 67.9%
[12]
  viability, T/C: 47.3%
[13]
  viability, T/C: 97.9%
[14]
  viability, T/C: 102%
[15]
  viability, T/C: 81.8%
[16]
  viability, T/C: 92.9%
[17]
  viability, T/C: 92%
[18]
  viability, T/C: 66.2%
[19]
  viability, T/C: 102%
[20]
  viability, T/C: 99.6%
[21]
  viability, T/C: 84%
[22]
  viability, T/C: 74.4%
[23]
  viability, T/C: 88.7%
[24]
  viability, T/C: 77.5%
[25]
  viability, T/C: 100%
[26]
  viability, T/C: 105%
[27]
  viability, T/C: 84.7%
[28]
  viability, T/C: 83.8%
[29]
  viability, T/C: 70.8%
[30]
  viability, T/C: 84.5%
[31]
  viability, T/C: 102%
[32]
  viability, T/C: 113%
[33]
  viability, T/C: 89%
[34]
  viability, T/C: 94.1%
[35]
  viability, T/C: 89.7%
[36]
  viability, T/C: 74.2%
